Data published in PMC7961380, “A Systematic Study of the In Vitro Pharmacokinetics and Estimated Human In Vivo Clearance of Indole and Indazole-3-Carboxamide Synthetic Cannabinoid Receptor Agonists Detected on the Illicit Drug Market” (Molecules, 2021).

What was measured:
[1] = HLM, ref 14 (THJ-018, THJ-2201), 15 (NNEI, MN-18), 106 (NM-2201), 107 (BIM-2201), 95 (Cumyl-PICA, 5F-Cumyl-PICA), 108 (STS-135), 16 (AB-PINACA, 5F-AB-PINACA), 54 (5F-MDMB-PINACA), 109 (5F-APP-PICA, 5F-APP-PINACA, […], 69 (AB-FUBINACA), 17 (ADB-FUBINACA), 97 (FDU-PB-22, FUB-PB-22), cited from earlier work
[2] = Metabolic stability, pooled human liver microsome incubations; conditions: for Microsomal Intrinsic Clearance, CLint micr / T1/2: n ≥ 3 ± SD; for T1/2: pHLM 0.5 mg mL^−1, 0.5 µM, NADPH, 37 °C
Description: Total incubation volume was 500 µL. Procedure: Test compound working solutions (50 µM in potassium phosphate buffer (pH 7.4)) were prepared (<1% DMSO). pHLM were thawed and diluted in potassium phosphate buffer (pH 7.4). […] Reactions were quenched in 200 µL ACN spiked with donepezil (IS, 50 ng mL^−1). […] Samples were analysed by UPLC-MS/MS in a 96 deep-well 2 mL plate. Each SCRA was incubated at least in triplicate but additional incubations were carried out across a number of analytical batches, giving greater replication and a greater understanding of system variability. Microsomal scaling factors used for human liver microsome incubations in the literature vary. Intrinsic clearance and predicted in vivo clearance rates calculated using alternative scaling factors found in the literature is provided in Section S6 of the supplementary information, to aid comparison of data between publications.
Equations used for in vitro intrinsic clearance calculation and human in vivo clearance […]
The equations used for in vitro intrinsic clearance calculation and human in vivo clearance estimation […]
Microsomal clearance (HLM incubations) in mL min-1 mg microsomal protein-1 [3]
Intrinsic clearance (whole-liver dimensions) (HLM incubations) in mL min-1 kg-1 [3] CL = k x V x [Liver](g) x SF Eqn. 7 […]
mg g microsomal protein-1 [7]
Intrinsic clearance (whole-liver dimensions) (HHep incubations) in mL min-1 kg-1 [4] CL = k x V x hepatocytes/g liver x [Liver](g) Eqn. 8 […]
Where: hepatocytes/g liver = 107x10^6 cells/g liver
Hepatic clearance in mL min-1 kg-1 [3]
[…] Eqn. 9
Where: Q = hepatic blood flow, 21 mL min-1 kg-1 [9]; fu = fraction unbound (plasma); CLint = […]
Estimated human hepatic extraction ratio [5]
Intrinsic clearance data – pooled human liver microsome incubations […]
table S4-28. Intrinsic clearance and predicted in vivo data calculated using alternative microsomal scaling factors found in the literature – 32 [10] and 45 [11] mg microsomal protein per gram liver – are provided in tables S29 and S30, respectively.

[3] = tested on: pooled human cryopreserved hepatocytes (pHHeps); assay: Metabolic stability, pooled human cryopreserved hepatocyte incubations; conditions: for T1/2: pHHeps 0.25 million cells mL^−1, 0.5 µM, 37 °C, n ≥ 3 ± SD
[4] = pHLM, alternative microsomal scaling factor 45 mg microsomal protein per gram liver
[5] = pHHeps, alternative hepatocyte cell density 99x10^6 hepatocytes per gram liver
[6] = pHLM, scaling factor 32 mg microsomal protein per gram liver
[7] = pHLM, scaling factor 45 mg microsomal protein per gram liver
[8] = pHHeps, 99x10^6 hepatocytes per gram liver

NC(=O)[C@H](Cc1ccccc1)NC(=O)c1nn(CC2CCCCC2)c2ccccc12
CLint micr ([1]; 73 (5F-AMB-PINACA)): 133 µL/min/mg
t1/2 ([1]; 57 (AMB-4en-PICA), 73 (AMB-PINACA, 5F-AMB-PINACA)): 5.2 min

COC(=O)C(NC(=O)c1nn(CCCCCF)c2ccccc12)C(C)C (stereo in doubt) [(R)-5F-AMB-PINACA (10), methyl [1-(5-fluoropentyl)-1H-indazole-3-carbonyl]valinate]
% parent compound remaining, Average ([2]; pHLM, 3 min): 64.1%
% parent compound remaining, Average ([2]; pHLM, 6 min): 51.0%
% parent compound remaining, Average ([2]; pHLM, 9 min): 38.0%
% parent compound remaining, Average ([2]; pHLM, 15 min): 21.7%
% parent compound remaining, Average ([2]; pHLM, 30 min): 6.8%
Microsomal Intrinsic Clearance, CLint micr ([2]; pHLM): 0.213 ± 0.014 mL min^−1 mg Microsomal Protein^−1
% parent compound remaining, Average ([3]; pHHeps, 3 min): 69.9%
% parent compound remaining, Average ([3]; pHHeps, 6 min): 35.6%
% parent compound remaining, Average ([3]; pHHeps, 9 min): 28.2%
% parent compound remaining, Average ([3]; pHHeps, 15 min): 12.1%
% parent compound remaining, Average ([3]; pHHeps, 30 min): 3.1%
% parent compound remaining, Average ([3]; pHHeps, 45 min): 0.9%
% parent compound remaining, Average ([3]; pHHeps, 60 min): 0.2%

COC(=O)C(NC(=O)c1cn(CC2CCCCC2)c2ccccc12)C(C)C (stereo in doubt) [(R)-AMB-CHMICA (9), methyl [1-(cyclohexylmethyl)-1H-indole-3-carbonyl]valinate]
% parent compound remaining, Average ([2]; pHLM, 3 min): 73.0%
% parent compound remaining, Average ([2]; pHLM, 6 min): 53.6%
% parent compound remaining, Average ([2]; pHLM, 9 min): 47.4%
% parent compound remaining, Average ([2]; pHLM, 15 min): 30.4%
% parent compound remaining, Average ([2]; pHLM, 30 min): 11.3%
Microsomal Intrinsic Clearance, CLint micr ([2]; pHLM): 0.167 ± 0.019 mL min^−1 mg Microsomal Protein^−1
% parent compound remaining, Average ([3]; pHHeps, 3 min): 62.7%
% parent compound remaining, Average ([3]; pHHeps, 6 min): 61.2%
% parent compound remaining, Average ([3]; pHHeps, 9 min): 45.1%
% parent compound remaining, Average ([3]; pHHeps, 15 min): 26.7%
% parent compound remaining, Average ([3]; pHHeps, 30 min): 11.8%
% parent compound remaining, Average ([3]; pHHeps, 45 min): 5.9%
% parent compound remaining, Average ([3]; pHHeps, 60 min): 3.2%

COC(=O)C(NC(=O)c1nn(Cc2ccc(F)cc2)c2ccccc12)C(C)C (stereo in doubt) [(R)-AMB-FUBINACA (1), methyl [1-(4-fluorobenzyl)-1H-indazole-3-carbonyl]valinate]
% parent compound remaining, Average ([2]; pHLM, 3 min): 57.2%
% parent compound remaining, Average ([2]; pHLM, 6 min): 46.7%
% parent compound remaining, Average ([2]; pHLM, 9 min): 34.5%
% parent compound remaining, Average ([2]; pHLM, 15 min): 20.5%
% parent compound remaining, Average ([2]; pHLM, 30 min): 6.8%
Microsomal Intrinsic Clearance, CLint micr ([2]; pHLM): 0.237 ± 0.020 mL min^−1 mg Microsomal Protein^−1
% parent compound remaining, Average ([3]; pHHeps, 3 min): 41.1%
% parent compound remaining, Average ([3]; pHHeps, 6 min): 22.5%
% parent compound remaining, Average ([3]; pHHeps, 9 min): 21.4%
% parent compound remaining, Average ([3]; pHHeps, 15 min): 12.3%
% parent compound remaining, Average ([3]; pHHeps, 30 min): 2.7%
% parent compound remaining, Average ([3]; pHHeps, 45 min): 0.9%
% parent compound remaining, Average ([3]; pHHeps, 60 min): 0.8%

CCOc1ccc2ccc(=O)oc2c1 [7-ethoxycoumarin, reference compound]
% parent compound remaining, Average ([3]; pHHeps, 3 min): 91.4%
% parent compound remaining, Average ([3]; pHHeps, 6 min): 89.4%
% parent compound remaining, Average ([3]; pHHeps, 9 min): 80.0%
% parent compound remaining, Average ([3]; pHHeps, 15 min): 73.7%
% parent compound remaining, Average ([3]; pHHeps, 30 min): 54.9%
% parent compound remaining, Average ([3]; pHHeps, 45 min): 40.7%
% parent compound remaining, Average ([3]; pHHeps, 60 min): 29.0%
Intrinsic clearance, CLint ([3]; pHHeps, scaled to whole liver, 107x10^6 cells/g liver): 55 to 305 mL/min/kg

O=c1ccc2ccc(O)cc2o1 [7-hydroxycoumarin, reference compound]
intrinsic clearance rate ([3]; pHHeps positive control, range over batches): 46 to 238 min⁻¹ kg⁻¹
% parent compound remaining, Average ([3]; pHHeps, 3 min): 98.6%
% parent compound remaining, Average ([3]; pHHeps, 6 min): 97.5%
% parent compound remaining, Average ([3]; pHHeps, 9 min): 95.7%
% parent compound remaining, Average ([3]; pHHeps, 15 min): 90.8%
% parent compound remaining, Average ([3]; pHHeps, 30 min): 75.8%
% parent compound remaining, Average ([3]; pHHeps, 45 min): 67.2%
% parent compound remaining, Average ([3]; pHHeps, 60 min): 55.8%

CC(C)[C@@H](NC(=O)c1nn(Cc2ccc(F)cc2)c2ccccc12)C(N)=O [(R)-AB-FUBINACA (8), N-(1-amino-3-methyl-1-oxobutan-2-yl)-1-(4-fluorobenzyl)-1H-indazole-3-carboxamide]
T1/2 [2]: 145 ± 45 min
% parent compound remaining, Average ([2]; pHLM, 3 min): 89.5%
% parent compound remaining, Average ([2]; pHLM, 6 min): 90.5%
% parent compound remaining, Average ([2]; pHLM, 9 min): 88.4%
% parent compound remaining, Average ([2]; pHLM, 15 min): 82.9%
% parent compound remaining, Average ([2]; pHLM, 30 min): 83.9%
Intrinsic clearance, CLint [2, 4]: 11.8 mL/min/kg
Microsomal Intrinsic Clearance, CLint micr ([2]; pHLM): 0.010 ± 0.003 mL min^−1 mg Microsomal Protein^−1
T1/2 [3]: 69 ± 11 min
% parent compound remaining, Average ([3]; pHHeps, 3 min): 96.7%
% parent compound remaining, Average ([3]; pHHeps, 6 min): 86.5%
% parent compound remaining, Average ([3]; pHHeps, 9 min): 84.9%
% parent compound remaining, Average ([3]; pHHeps, 15 min): 84.4%
% parent compound remaining, Average ([3]; pHHeps, 30 min): 75.2%
% parent compound remaining, Average ([3]; pHHeps, 45 min): 82.9%
% parent compound remaining, Average ([3]; pHHeps, 60 min): 78.8%
Intrinsic clearance, CLint [3, 5]: 105 ± 14.6 mL/min/kg

CC(C)[C@@H](NC(=O)c1nn(CC2CCCCC2)c2ccccc12)C(N)=O [(R)-AB-[…] (11)] [N-[1-amino-3-methyl-1-oxobutan-2-yl]-1-(cyclohexylmethyl)-1H-indazole-3-carboxamide]
T1/2 [2]: 43 ± 5.0 min
% parent compound remaining, Average ([2]; pHLM, 3 min, […]): 84.0%
% parent compound remaining, Average ([2]; pHLM, 6 min, […]): 84.4%
% parent compound remaining, Average ([2]; pHLM, 9 min, […]): 82.1%
% parent compound remaining, Average ([2]; pHLM, 15 min, […]): 73.6%
% parent compound remaining, Average ([2]; pHLM, 30 min, […]): 59.0%
Intrinsic clearance, CLint ([2]; pHLM, alternative microsomal scaling factor 32 mg microsomal protein per gram liver): 26.9 mL/min/kg
Intrinsic clearance, CLint [2, 4]: 37.8 ± 4.19 mL/min/kg
Microsomal Intrinsic Clearance, CLint micr ([2]; pHLM): 0.033 ± 0.004 mL min^−1 mg Microsomal Protein^−1
T1/2 [3]: 38 ± 8.7 min
% parent compound remaining, Average ([3]; pHHeps, 3 min, […]): 91.3%
% parent compound remaining, Average ([3]; pHHeps, 6 min, […]): 89.8%
% parent compound remaining, Average ([3]; pHHeps, 9 min, […]): 88.6%
% parent compound remaining, Average ([3]; pHHeps, 15 min, […]): 86.6%
% parent compound remaining, Average ([3]; pHHeps, 30 min, […]): 73.0%
% parent compound remaining, Average ([3]; pHHeps, 45 min, […]): 75.2%
% parent compound remaining, Average ([3]; pHHeps, 60 min, […]): 76.2%
Intrinsic clearance, CLint [3, 5]: 197 ± 50.3 mL/min/kg

CC(C)[C@H](NC(=O)c1nn(CC2CCCCC2)c2ccccc12)C(N)=O [(S)-AB-[…] (11)] [N-[1-amino-3-methyl-1-oxobutan-2-yl]-1-(cyclohexylmethyl)-1H-indazole-3-carboxamide]
Predicted In Vivo Hepatic Clearance, CLH ([2]; from pHLM CLint, well-stirred model with plasma fu, Q 21 mL min^−1 kg^−1): 1.77 ± 0.17 mL/min/kg
Hepatic extraction ratio, EH ([2]; from pHLM incubations): 0.08 ± 0.008
% parent compound remaining, Average ([2]; pHLM, 3 min, […]): 76.2%
% parent compound remaining, Average ([2]; pHLM, 6 min, […]): 76.7%
% parent compound remaining, Average ([2]; pHLM, 9 min, […]): 70.6%
% parent compound remaining, Average ([2]; pHLM, 15 min, […]): 61.7%
% parent compound remaining, Average ([2]; pHLM, 30 min, […]): 45.8%
Microsomal Intrinsic Clearance, CLint micr ([2]; pHLM): 0.051 ± 0.005 mL min^−1 mg Microsomal Protein^−1
Hepatic extraction ratio, EH [2, 6]: 0.05 ± 0.005
Predicted in vivo hepatic clearance, CLH [2, 6]: 1.12 ± 0.11 mL/min/kg
Hepatic extraction ratio, EH [2, 7]: 0.08 ± 0.007
Predicted in vivo hepatic clearance, CLH [2, 7]: 1.54 ± 0.15 mL/min/kg
Predicted In Vivo Hepatic Clearance, CLH ([3]; from pHHeps CLint, well-stirred model with plasma fu, Q 21 mL min^−1 kg^−1): 4.52 ± 1.12 mL/min/kg
Hepatic extraction ratio, EH ([3]; from pHHeps incubations): 0.22 ± 0.053
Hepatic extraction ratio, EH [3, 8]: 0.20 ± 0.051
Predicted in vivo hepatic clearance, CLH [3, 8]: 4.26 ± 1.08 mL/min/kg
% parent compound remaining, Average ([3]; pHHeps, 3 min, […]): 96.9%
% parent compound remaining, Average ([3]; pHHeps, 6 min, […]): 85.7%
% parent compound remaining, Average ([3]; pHHeps, 9 min, […]): 81.8%
% parent compound remaining, Average ([3]; pHHeps, 15 min, […]): 88.6%
% parent compound remaining, Average ([3]; pHHeps, 30 min, […]): 65.5%
% parent compound remaining, Average ([3]; pHHeps, 45 min, […]): 63.2%
% parent compound remaining, Average ([3]; pHHeps, 60 min, […]): 53.4%
